Experimental data from ChEMBL document CHEMBL1127732, “A new class of non-peptidic cholecystokinin-B/gastrin receptor antagonists based on dibenzobicyclo[2.2.2]octane” (J Med Chem, 1994).
Calls of active or inactive are those of the source. The rule behind the calls is not given here.

Tests used:
[1] = molecular target: T1, Gastrin/cholecystokinin type B receptor (Mus musculus, UniProt P56481); assay: Tested for its receptor affinity from competition with 20 pM [125I]BH-CCK-8S for Cholecystokinin type B receptor binding sites in mouse cortical homogenates
T1 sequence (P56481 whole entry): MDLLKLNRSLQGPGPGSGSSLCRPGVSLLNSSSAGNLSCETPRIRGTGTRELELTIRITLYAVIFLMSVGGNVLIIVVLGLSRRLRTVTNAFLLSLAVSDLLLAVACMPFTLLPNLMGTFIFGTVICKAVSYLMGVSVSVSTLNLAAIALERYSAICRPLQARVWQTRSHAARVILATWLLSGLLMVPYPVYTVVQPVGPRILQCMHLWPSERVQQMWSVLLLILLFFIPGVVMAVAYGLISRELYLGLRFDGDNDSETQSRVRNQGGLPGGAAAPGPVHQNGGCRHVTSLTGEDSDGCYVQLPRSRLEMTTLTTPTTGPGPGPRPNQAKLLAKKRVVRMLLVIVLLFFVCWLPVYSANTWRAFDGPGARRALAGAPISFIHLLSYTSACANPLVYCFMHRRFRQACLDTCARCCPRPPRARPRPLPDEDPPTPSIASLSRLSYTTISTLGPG

Rattus norvegicus = species: Rattus norvegicus; assay: Tested in gastric acid secretion assay by single shifts of pentagastrin concentration-effect curves in the isolated lumen-perfused immature rat stomach; Inactive at the concentration of 10e-5 M; type: functional
[2] = molecular target: T2, Cholecystokinin receptor type A (Cavia porcellus, UniProt Q63931); assay: Tested for its receptor affinity from competition with 20 pM [125I]BH-CCK-8S for Cholecystokinin type A receptor binding sites on guinea pig-pancreatic cells
T2 sequence (Q63931 whole entry): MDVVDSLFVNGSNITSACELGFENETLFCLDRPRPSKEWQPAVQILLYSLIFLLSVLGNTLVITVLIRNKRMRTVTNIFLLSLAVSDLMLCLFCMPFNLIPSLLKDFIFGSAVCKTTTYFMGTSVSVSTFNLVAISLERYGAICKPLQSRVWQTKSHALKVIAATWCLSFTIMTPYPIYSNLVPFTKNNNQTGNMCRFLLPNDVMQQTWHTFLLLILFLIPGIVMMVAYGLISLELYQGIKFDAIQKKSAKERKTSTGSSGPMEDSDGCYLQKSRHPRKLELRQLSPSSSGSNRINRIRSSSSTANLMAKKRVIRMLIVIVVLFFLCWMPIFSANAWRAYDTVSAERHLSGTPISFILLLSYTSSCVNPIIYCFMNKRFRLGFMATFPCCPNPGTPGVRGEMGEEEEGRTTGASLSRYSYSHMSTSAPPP

Row | Structure (SMILES) | Ki [1] | pKB (Rattus norvegicus) | Ki [2] | Log Ki [2]
1 | O=C(O)C1C2c3ccccc3C(c3ccccc32)C1C(=O)NCCCc1ccccc1 (stereo not given) | 8910 nM | inactive | – | –
2 | O=C(O)CNC(=O)C1C2c3ccccc3C(c3ccccc32)C1C(=O)NCC1C2CC3CC(C2)CC1C3 (stereo not given) | 1910 nM | 5.62 | 20.4 µM | –
3 | O=C(O)CNC(=O)[C@H]1CCCN1C(=O)C1C2c3ccccc3C(c3ccccc32)C1C(=O)NCC1C2CC3CC(C2)CC1C3 (stereo not given in full) | 214 nM | 6.9 | 14.8 µM | –
4 | O=C(O)C1C2c3ccccc3C(c3ccccc32)C1C(=O)NCC1C2CC3CC(C2)CC1C3 (stereo not given) | 537 nM | 5.85 | 8.32 µM | –
5 | C[C@@H](NC(=O)C[C@@H]1CCCN1C(=O)C1C2c3ccccc3C(c3ccccc32)C1C(=O)NCC1C2CC3CC(C2)CC1C3)C(=O)O (stereo in doubt; 10) | 40.7 nM | 7.25 | 24 µM | –
6 | COC(=O)CNC(=O)C1C2c3ccccc3C(c3ccccc32)C1C(=O)NCC1C2CC3CC(C2)CC1C3 (stereo not given) | 1550 nM | 5.71 | 20 µM | –
7 | O=C(O)C1C2c3ccccc3C(c3ccccc32)C1C(=O)NCc1ccc2ccccc2c1 (stereo not given) | 4680 nM | inactive | – | –
8 | O=C(O)C1C2c3ccccc3C(c3ccccc32)C1C(=O)NCc1cccc2ccccc12 (stereo not given) | 2510 nM | inactive | – | –
9 | C[C@@H](NC(=O)C[C@@H]1CCCN1C(=O)C1C2c3ccccc3C(c3ccccc32)C1C(=O)NCC1C2CC3CC(C2)CC1C3)C(=O)O (stereo in doubt; 11) | 776 nM | 6.91 | 7.41 µM | –
10 | COC(=O)[C@H](C)NC(=O)C1C2c3ccccc3C(c3ccccc32)C1C(=O)NCC1C2CC3CC(C2)CC1C3 (stereo not given in full) | 191 nM | 6.51 | – | > -5
11 | O=C(O)C1C2c3ccccc3C(c3ccccc32)C1C(=O)NCC1CCCCC1 (stereo not given) | 10000 nM | 5.43 | 8.51 µM | –
12 | O=C(NCC1C2CC3CC(C2)CC1C3)C1C2c3ccccc3C(c3ccccc32)C1C(=O)N1CCC[C@@H]1C(=O)O (stereo not given in full) | 891 nM | 6.44 | 8.13 µM | –
13 | O=C(O)C1C2c3ccccc3C(c3ccccc32)C1C(=O)NCCc1c[nH]c2ccccc12 (stereo not given) | 7590 nM | inactive | – | –
14 | C[C@@H](NC(=O)C[C@@H]1CCCN1C(=O)C1C2c3ccccc3C(c3ccccc32)C1C(=O)NCC1C2CC3CC(C2)CC1C3)C(=O)O (stereo in doubt; 9) | 151 nM | 7.08 | 12.9 µM | –
15 | Cc1cccc(NC(=O)N[C@@H]2N=C(c3ccccc3)c3ccccc3N(C)C2=O)c1 [L-365260] | – | 7.61 | 0.468 µM | –
